Reference: patent US8455525B2, “Selective androgen receptor modulators” (Radius Health, Inc., priority 2008, dated 2013)
Structures can show the parent of a compound that is named as a salt. Where two headings read alike, the source gives them in different places.

Target: T1, androgen receptor (AR) (Rattus norvegicus, UniProt P15207)
T1 construct: purchased Invitrogen, Madison, Wis
T1 sequence (P15207 651-902 limits assumed): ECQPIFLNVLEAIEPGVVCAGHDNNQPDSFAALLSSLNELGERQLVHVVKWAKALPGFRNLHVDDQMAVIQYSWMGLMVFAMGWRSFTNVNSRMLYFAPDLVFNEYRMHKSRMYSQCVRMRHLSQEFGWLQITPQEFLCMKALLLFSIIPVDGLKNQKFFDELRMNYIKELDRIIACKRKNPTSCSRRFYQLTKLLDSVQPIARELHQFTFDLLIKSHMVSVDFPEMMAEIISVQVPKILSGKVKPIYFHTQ
Test: androgen receptor binding assay (fluorescence polarization, Fluormone AL Green competition)
Experimental: The assay was performed as specified by the manufacturer (Invitrogen, Madison, Wis.). Briefly, 1 μl of 10 mM compound was added to 500 μl of AR screening buffer in a 1.5 ml eppendorf tube to make a 2×10^−5M stock. 10-fold serial dilutions of the test compounds were prepared ranging in concentration from 10^−5M to 10^−12M. Each dilution was added in triplicate to a black 384-microtiter plate. The test compounds will be diluted 2-fold in the final reaction. 2×AR-Fluormone™ complex was prepared with 2 nM Flourmone AL Green™ and 30 nM AR. 25 μl of 2× complex was aliquoted to each reaction well, such that the final reaction volume was 50 μl per well. Plate was sealed with a foil cover and incubated in the dark at room temperature for 4 h. Polarization values for each well were measured. The polarization values were plotted against the concentration of the test compound. […] As a control, a competition curve for R1881 (methyltrienolone) was performed for each assay. Curve Fitting was performed using GraphPad Prism® software from GraphPad™ Software Inc. Binding data are reported as a single determination if the experiment was run once only and as the average of experiments if the binding experiment was performed two or more times with that compound.
Where multiple data points have been taken, the value reported is the average of the multiple determinations.

Structure (SMILES) | IC50 [nM] | IC50 (single determination or average of multiple determinations, read-out: Binding IC50 (AR-Binding Affinity)) [nM]
Cc1c(N[C@@H](c2nnc(-c3ccccc3)s2)[C@H](C)O)ccc(C#N)c1Cl [Example 27, 2-chloro-4-((1R,2S)-2-hydroxy-1-(5-phenyl-1,3,4-thiadiazol-2-yl)propylamino)-3-methylbenzonitrile] | 10 | –
C[C@@H](O)[C@@H](Nc1ccc(C#N)c2ccccc12)c1nnc(-c2ccccc2)o1 [Example 52, 4-((1R,2R)-2-Hydroxy-1-(5-phenyl-1,3,4-oxadiazol-2-yl)propylamino)-1-naphthonitrile] | 9 | –
Cc1c(N[C@@H](c2nnc(-c3ccc(O)c(Cl)c3)o2)[C@H](C)O)ccc(C#N)c1Cl [Example 37, 2-Chloro-4-((1R,2S)-1-(5-(3-chloro-4-hydroxyphenyl)-1,3,4-oxadiazol-2-yl)-2-hydroxypropylamino)-3-methylbenzonitrile] | 0.2 | –
Cc1c(N[C@@H](c2nnc(-c3ccc(C#N)cc3)o2)[C@@H](C)O)ccc(C#N)c1C(F)(F)F [Example 31, 4-((1R,2R)-1-(5-(4-cyanophenyl)-1,3,4-oxadiazol-2-yl)-2-hydroxypropylamino)-3-methyl-2-(trifluoromethyl)benzonitrile] | 5.9 | –
Cc1c(N[C@@H](c2nnc(-c3ccc(-n4cccn4)cc3)o2)[C@H](C)O)ccc(C#N)c1Cl [Example 53, 4-((1R,2S)-1-(5-(4-(1H-Pyrazol-1-yl)phenyl)-1,3,4-oxadiazol-2-yl)-2-hydroxypropylamino)-2-chloro-3-methylbenzonitrile] | 1 | –
Cc1c(N[C@@H](c2nnc(-c3ccc(OS(=O)(=O)O)cc3)o2)[C@H](C)O)ccc(C#N)c1Cl [Example 72, Sodium 4-(5-((1R,2S)-1-(3-chloro-4-cyano-2-methylphenylamino)-2-hydroxypropyl)-1,3,4-oxadiazol-2-yl)phenyl sulfate] | 780 | –
Cc1c(N[C@@H](c2nnc(-c3ccc(C#N)cc3)o2)[C@H](C)O)ccc(C#N)c1Cl [Example 22, 2-chloro-4-((1R,2S)-1-(5-(4-cyanophenyl)-1,3,4-oxadiazol-2-yl)-2-hydroxypropylamino)-3-methylbenzonitrile] | 2 | –
Cc1c(N[C@H](CCO)c2nnc(-c3ccc(C#N)cc3)o2)ccc(C#N)c1Cl [Example 79, (R)-2-chloro-4-(1-(5-(4-cyanophenyl)-1,3,4-oxadiazol-2-yl)-3-hydroxypropylamino)-3-methylbenzonitrile] | 2 | –
Cc1c(N[C@@H](c2nnc(-c3ccc(S(C)(=O)=O)cc3)o2)[C@H](C)O)ccc(C#N)c1Cl [Example 24, 2-chloro-4-((1R,2S)-2-hydroxy-1-(5-(4-(methylsulfonyl)phenyl)-1,3,4-oxadiazol-2-yl)propylamino)-3-methylbenzonitrile] | 200 | –
Cc1c(N[C@@H](c2nnc(-c3cccc(O)c3)o2)[C@@H](C)O)ccc(C#N)c1Cl [Example 9, 2-chloro-4-((1R,2R)-2-hydroxy-1-(5-(3-hydroxyphenyl)-1,3,4-oxadiazol-2-yl)propylamino)-3-methylbenzonitrile] | 10 | –
CCc1c(N[C@@H](c2nnc(-c3ccc(C#N)cc3)o2)[C@@H](C)O)ccc(C#N)c1Cl [Example 54, 2-Chloro-4-((1R,2R)-1-(5-(4-cyanophenyl)-1,3,4-oxadiazol-2-yl)-2-hydroxypropylamino)-3-ethylbenzonitrile] | 1 | –
Cc1c(N[C@@H](c2nnc(-c3ccc(Cl)cc3)o2)C(C)(C)O)ccc(C#N)c1Cl [Example 15, (R)-2-chloro-4-(1-(5-(4-chlorophenyl)-1,3,4-oxadiazol-2-yl)-2-hydroxy-2-methylpropylamino)-3-methylbenzonitrile] | 0.5 | –
Cc1c(N[C@@H](c2nnc(-c3ccc(F)c(O)c3)o2)[C@@H](C)O)ccc(C#N)c1Cl [Example 41, 2-Chloro-4-((1R,2R)-1-(5-(4-fluoro-3-hydroxyphenyl)-1,3,4-oxadiazol-2-yl)-2-hydroxypropylamino)-3-methylbenzonitrile] | 0.02 | –
C[C@H](O)[C@@H](Nc1ccc(C#N)c(Cl)c1Cl)c1nnc(-c2ccccc2)o1 [Example 33, 2,3-dichloro-4-((1R,2S)-2-hydroxy-1-(5-phenyl-1,3,4-oxadiazol-2-yl)propylamino)benzonitrile] | 15 | –
Cc1c(N[C@@H](c2nnc(-c3cccc(Cl)c3)o2)[C@H](C)O)ccc(C#N)c1Cl [Example 21, 2-chloro-4-((1R,2S)-1-(5-(3-chlorophenyl)-1,3,4-oxadiazol-2-yl)-2-hydroxypropylamino)-3-methylbenzonitrile] | 3 | –
Cc1c(N[C@@H](c2nnc(-c3ccc(F)cc3F)o2)[C@@H](C)O)ccc(C#N)c1Cl [Example 35, 2-Chloro-4-((1R,2R)-1-(5-(2,4-difluorophenyl)-1,3,4-oxadiazol-2-yl)-2-hydroxypropylamino)-3-methylbenzonitrile] | 0.2 | –
C[C@H](O)[C@@H](Nc1ccc(C#N)c2sccc12)c1nnc(-c2ccc(F)cc2)o1 [Example 62, 4-((1R,2S)-1-(5-(4-fluorophenyl)-1,3,4-oxadiazol-2-yl)-2-hydroxypropylamino)benzo[b]thiophene-7-carbonitrile] | 15 | –
CCc1c(N[C@@H](c2nnc(-c3ccccc3)o2)[C@H](C)O)ccc(C#N)c1Cl [Example 11, 2-chloro-3-ethyl-4-((1R,2S)-2-hydroxy-1-(5-phenyl-1,3,4-oxadiazol-2-yl)propylamino)benzonitrile] | 12 | –
Cc1c(N[C@@H](c2nnc(-c3ccc(Br)cc3)o2)[C@H](C)O)ccc(C#N)c1Cl [Example 56, 4-((1R,2S)-1-(5-(4-Bromophenyl)-1,3,4-oxadiazol-2-yl)-2-hydroxypropylamino)-2-chloro-3-methylbenzonitrile] | 10 | –
Cc1c(N[C@@H](c2nnc(-c3ccc(Cl)cc3)o2)[C@@H](C)O)ccc(C#N)c1Cl [Example 20, 2-Chloro-4-((1R,2R)-1-(5-(4-chlorophenyl)-1,3,4-oxadiazol-2-yl)-2-hydroxypropylamino)-3-methylbenzonitrile] | 15 | –
C[C@H](O)[C@@H](Nc1ccc(C#N)c(Cl)c1)c1nnc(-c2ccccc2)o1 [Example 12, 2-chloro-4-((1R,2S)-2-hydroxy-1-(5-phenyl-1,3,4-oxadiazol-2-yl)propylamino)benzonitrile] | – | 300
C[C@@H](O)[C@@H](Nc1ccc(C#N)c2sccc12)c1nnc(-c2ccccc2)o1 [Example 65, 4-((1R,2R)-2-hydroxy-1-(5-phenyl-1,3,4-oxadiazol-2-yl)propylamino)benzo[b]thiophene-7-carbonitrile] | 1 | –
Cc1c(N[C@@H](c2nnc(-c3ccc(O)c(Cl)c3)o2)[C@@H](C)O)ccc(C#N)c1Cl [Example 30, 2-Chloro-4-((1R,2R)-1-(5-(3-chloro-4-hydroxyphenyl)-1,3,4-oxadiazol-2-yl)-2-hydroxypropylamino)-3-methylbenzonitrile] | 0.3 | –
Cc1c(N[C@@H](c2nnc(-c3ccc(O)cc3)o2)[C@@H](C)O)ccc(C#N)c1Cl [Example 10, 2-chloro-4-((1R,2R)-2-hydroxy-1-(5-(4-hydroxyphenyl)-1,3,4-oxadiazol-2-yl)propylamino)-3-methylbenzonitrile] | 15 | –
Cc1c(N[C@@H](c2nnc(-c3ccc(F)c(O)c3)o2)[C@H](C)O)ccc(C#N)c1Cl [Example 40, 2-Chloro-4-((1R,2S)-1-(5-(4-fluoro-3-hydroxyphenyl)-1,3,4-oxadiazol-2-yl)-2-hydroxypropylamino)-3-methylbenzonitrile] | 0.2 | –
C[C@@H](O)[C@@H](Nc1ccc(C#N)c(C(F)(F)F)c1)c1nnc(-c2ccc(S(C)(=O)=O)cc2)o1 [Example 59, 4-((1R,2R)-2-hydroxy-1-(5-(4-(methylsulfonyl)phenyl)-1,3,4-oxadiazol-2-yl)propylamino)-2-(trifluoromethyl)benzonitrile] | > 1000 | –
Cc1c(N[C@@H](c2nnc(-c3ccc(CO)cc3)o2)[C@H](C)O)ccc(C#N)c1Cl [Example 49, 2-Chloro-4-((1R,2S)-2-hydroxy-1-(5-(4-(hydroxymethyl)phenyl)-1,3,4-oxadiazol-2-yl)propylamino)-3-methylbenzonitrile] | 2 | –
C[C@@H](O)[C@@H](Nc1ccc(C#N)c(Cl)c1)c1nnc(-c2ccc(C#N)cc2)o1 [Example 46, 2-Chloro-4-((1R,2R)-1-(5-(4-cyanophenyl)-1,3,4-oxadiazol-2-yl)-2-hydroxypropylamino)-benzonitrile] | 6 | –
Cc1c(N[C@@H](c2nnc(-c3ccc(O)c(F)c3)o2)[C@H](C)O)ccc(C#N)c1Cl [Example 29, 2-chloro-4-((1R,2S)-1-(5-(3-fluoro-4-hydroxyphenyl)-1,3,4-oxadiazol-2-yl)-2-hydroxypropylamino)-3-methylbenzonitrile] | 0.03 | –
COc1cccc(-c2nnc([C@H](Nc3ccc(C#N)c(Cl)c3C)[C@H](C)O)o2)c1 [Example 6, 2-chloro-4-((1R,2S)-2-hydroxy-1-(5-(3-methoxyphenyl)-1,3,4-oxadiazol-2-yl)propylamino)-3-methylbenzonitrile] | 16 | –
